Experimental data reported in patent publication US6538023B1, “Therapeutic uses of green tea polyphenols for sickle cell disease” (priority 2000, dated 2003).
Entries after “also recorded” stand apart in the source; their conditions may differ.

System: sickle red blood cells (K-Cl cotransport)
Assay: Inhibition of dense cell formation triggered by 500 mM urea (K-Cl cotransport) in sickle red blood cells
Type: cell-based, human
Conditions: 37 centigrade, 3 hours; for inhibition of dense cell formation (FIG. 4): 0.6 mM, oxygenated and deoxygenated conditions; for inhibition of dense cell formation: hematocrit 2%
Experimental: The reaction medium consists of: 150 mM NaCl, 1 mM MgSO4, 10 mM HEPES buffer and 10 mM glucose. The osmolarity of the medium was adjusted to 290 mOsm/kg using a freezing point osmometer and the pH was adjusted to 7.4
For in vitro tests, blood was obtained from adult sickle cell patients (using acid-citrate-dextrose as an anticoagulant) whose hemoglobin F content is less than 1% and whose content of irreversibly sickled cells is less than 10%. The blood could be used for 2 days as long as the air-space of the container was equilibrated with 95% air/5% CO2 and the container was gently tumbled (1 to 2 rpm) at 4° C.
Four ml of the density gradient solution (density=1.104) was poured into each of 15 ml COREX centrifuge tubes (Corning Glass), and the tubes were spun at 10,000 rpm for 5 min, by which a density gradient was automatically formed. Then, 100 μl of blood was overlayered on top of each pre-formed density gradient, and the tubes were span for 10 minutes at 2,500 rpm using a low speed centrifuge with a swing rotor.
When red blood cells of normal subject with normal hemoglobin were spun, they all stayed near a top portion of the gradient (FIG. 2A). […] Then, the red blood cells in the top layer of each tubes, which consists of “non-dense cells”, were collected, washed with the reaction medium, resuspended in the same medium, and used for the experiments.
As described above, tubes each containing 4 ml of the density gradient solution with the density of 1.104 were spun at 12,000 rpm for 5 min to form gradient density. K-Cl cotransport experiments were conducted by incubating a suspension of “non-dense cells” with the hematocrit value of 2% at 37 centigrade for 3 hours. Then, 50 μl of each non-dense cell suspension was overlayered on top of the pre-formed density gradient, and the tubes were span for 10 minutes at 2,500 rpm using a low speed centrifuge with a swing rotor. If 500 mM urea was added before the incubation, dense cells were formed due to the stimulation of K-Cl cotransport as shown in FIG. 2D.
When the bottom layer was formed, red cells in both the top and bottom layers were separately collected, washed and hemolyzed in 5 mM phosphate buffer (pH 7.4) containing 0.5 mM EDTA and 0.5% of a detergent, BRIJ-30. From the hemoglobin content as determined by spectrophotometry, we determined the percentage of dense cell formation (Ohnishi, S. T. British J. Haematology 55:665-671, 1983).
FIG. 3. Dense cells can be formed by incubating non-dense cells at 37 centigrade for 3 hours in the presence of 500 mM urea, which triggers K-Cl cotransport and concomitant dehydration. […] The formation can be inhibited by the addition of inhibitors before starting the incubation. […] However, neither 2 mM vitamin C nor 2 mM vitamin E inhibited the dense cell formation.
FIG. 4. The inhibition of dense cell formation triggered with 500 mM urea at 37 centigrade for 3 hours by different green tea polyphenols. Open columns are for the oxygenated condition and filled columns for the deoxygenated condition. Abbreviations. CH: (+)-Catechin; EC: (−)-Epicatechin; ECg: (−)-Epicatechin gallate; EGC: (−)-Epigallocatechin; and EGCg: (−)-Epigallocatechin gallate.

Question: For `Oc1cc(O)c2c(c1)O[C@H](c1ccc(O)c(O)c1)[C@@H](O)C2` [CH, (+)-Catechin], which “inhibition of dense cell formation (FIG. 4)” value (“inhibition … (FIG. 4)” below) is on record?
Answer: no effects

Question: `O=C(O[C@@H]1Cc2c(O)cc(O)cc2O[C@@H]1c1ccc(O)c(O)c1)c1cc(O)c(O)c(O)c1` [ECg, (−)-Epicatechin gallate] was tested. Which “inhibition … (FIG. 4)” value did it give?
Answer: significant effect

Question: For `Oc1cc(O)c2c(c1)O[C@H](c1cc(O)c(O)c(O)c1)[C@H](O)C2` [EGC, (−)-Epigallocatechin], which “inhibition … (FIG. 4)” value is on record?
Answer: significant effect

Question: For `O=C1O[C@H]([C@@H](O)CO)C(O)=C1O` [Vitamin C, reference compound], which “inhibition of dense cell formation” value (2 mM) is on record?
Answer: no inhibitory effect

Question: For `COC[C@@H]([C@H](O)[C@H](O)C(=O)NCC[C@H](C)c1nc(/C=C/C[C@@H]2O[C@]3(C[C@@H](O)[C@@H]2C)O[C@H]([C@H](C[C@H](O)[C@H](C)[C@H](O)[C@H](C)/C=C(C)/C(C)=C/C=C/C(C)=C\C#N)OC)[C@H](OP(=O)(O)O)C3(C)C)co1)N(C)C` [calyculin A, reference compound], which “inhibition of dense cell formation” value (25 nM) is on record?
Answer: inhibited the dense cell formation completely

Question: How did the “inhibition of dense cell formation” value (100 nM) turn out when `C=C1[C@@H](O)[C@@H]2O[C@]3(CC[C@H](/C=C/[C@@H](C)[C@@H]4CC(C)=C[C@@]5(O[C@H](C[C@@](C)(O)C(=O)O)CC[C@H]5O)O4)O3)CC[C@H]2O[C@@H]1[C@@H](O)C[C@H](C)[C@H]1O[C@@]2(CCCCO2)CC[C@H]1C` [okadaic acid, reference compound] was run?
Answer: inhibited the dense cell formation completely

Question: With (−)-Epigallocatechin gallate [EGCg] as the compound, how does the “inhibition … (FIG. 4)” value read?
Answer: significant effect; also recorded: maximum inhibitory effect

Question: What about the “inhibition of dense cell formation” value (0.2-0.6 mM) of the same compound?
Answer: effectively inhibited dense cell formation

Question: With Vitamin E [reference compound] as the compound, how does the “inhibition of dense cell formation” value (2 mM) read?
Answer: no inhibitory effect
